Results from patent US11299467B2 (Antabio SAS, priority 2017, dated 2022).
Like-named read-outs stand apart in the source and are kept apart here.

What was measured:
[1] = target: VIM-1 (Pseudomonas aeruginosa, UniProt A0A0F7KYQ8); test: In vitro enzyme inhibition assay, purified VIM-1 (imipenem hydrolysis, UV 299 nm); format: biochemical
Procedure: (§1) Enzyme inhibition assays were performed using purified MBL enzymes (NDM-1; VIM-1; VIM-2; IMP-1) in 10 mM HEPES buffer pH 7.5 in 96-well microtiter plates. Imipenem (300 μM) was used as substrate and its hydrolysis was followed at UV 299 nm during 10 mn every 30 seconds using a Perkin Elmer Envision UV fluorescence plate reader.
(§2) Mean Ki values from multiple experiments are presented below.
(§3) Studies were undertaken to compare the compounds of the invention with structurally similar compounds (“Comp. x”). Experiments were conducted as described above.

[2] = target: VIM-2 (Escherichia coli, UniProt Q5U7L7); test: In vitro enzyme inhibition assay, purified VIM-2 (imipenem hydrolysis, UV 299 nm); format: biochemical
Procedure: as §1, §2, §3

[3] = target: IMP-1 (Serratia marcescens, UniProt P52699); test: In vitro enzyme inhibition assay, purified IMP-1 (imipenem hydrolysis, UV 299 nm); format: biochemical
Chain of IMP-1 (P52699 19-246, looked up, species assumed): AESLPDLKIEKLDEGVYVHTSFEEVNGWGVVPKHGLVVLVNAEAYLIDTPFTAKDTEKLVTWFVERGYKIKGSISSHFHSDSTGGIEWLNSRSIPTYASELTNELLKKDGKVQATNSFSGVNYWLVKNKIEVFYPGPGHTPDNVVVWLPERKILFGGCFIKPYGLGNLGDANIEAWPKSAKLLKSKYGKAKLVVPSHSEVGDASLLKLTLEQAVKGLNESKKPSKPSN
Procedure: as §1, §2, §3

[4] = target: NDM-1 (Klebsiella pneumoniae, UniProt C7C422); test: In vitro enzyme inhibition assay, purified NDM-1 (imipenem hydrolysis, UV 299 nm); format: biochemical
Chain of NDM-1 (C7C422 29-270, looked up): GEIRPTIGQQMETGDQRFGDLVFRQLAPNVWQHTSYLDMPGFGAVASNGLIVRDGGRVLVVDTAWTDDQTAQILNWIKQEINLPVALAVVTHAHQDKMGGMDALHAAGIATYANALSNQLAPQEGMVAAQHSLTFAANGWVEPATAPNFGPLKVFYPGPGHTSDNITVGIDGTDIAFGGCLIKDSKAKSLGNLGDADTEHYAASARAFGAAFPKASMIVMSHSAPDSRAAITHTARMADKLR
Procedure: as §1, §2, §3

[5] = Plasma stability of test compounds in human plasma; format: in vitro ADME; details: 1 μM, 37° C.
Procedure: [table] Test compound and QC compound were incubated at a final concentration of 1 μM in plasma at 37° C. in shaker water bath with gentle shaking. At predetermined time points, reaction was terminated with 200 μL of acetonitrile containing internal standard and centrifuged at 4000×RCF, 4° C. for 20 minutes. Supernatant was separated and analyzed by LC-MS/MS. The following equation was used to determine the percentage remaining of test/QC compound following the procedure above: […]

[6] = test system: K. pneumoniae NTBC104; test: In vivo efficacy, mouse thigh infection with K. pneumoniae NTBC104; details: meropenem 30 mg/kg plus compound 30 mg/kg, 9 hours post infection
Procedure: Mice were infected in the thigh with K. pneumoniae NTBC104. […] The MIC of meropenem in the presence of 8 ug/mL of the compound of Example 2 is 4 ug/mL.
At the end of the experiment (9 hours post infection) the animals were sacrificed and the numbers of colony forming units (CFUs) were measured in order to quantify bacterial load (extent of the infection).

[7] = mean Ki from multiple experiments, imipenem 300 μM, Cheng-Prusoff from IC50, read-out: Ki VIM-1
[8] = mean Ki from multiple experiments, imipenem 300 μM, Cheng-Prusoff from IC50, read-out: Ki VIM-2
[9] = mean Ki from multiple experiments, imipenem 300 μM, Cheng-Prusoff from IC50, read-out: Ki IMP-1
[10] = mean Ki from multiple experiments, imipenem 300 μM, Cheng-Prusoff from IC50, read-out: Ki NDM-1
[11] = comparative study bands, read-out: Ki VIM-1 (comparative study)
[12] = comparative study bands, read-out: Ki VIM-2 (comparative study)
[13] = comparative study bands, read-out: Ki IMP-1 (comparative study)
[14] = comparative study bands, read-out: Ki NDM-1 (comparative study)

SMILES	Ki [1, 7] [nM]	Ki [2, 8] [nM]	Ki [3, 9] [nM]	Ki [4, 10] [nM]	Stability in human plasma, % remaining ([5]; after 2 hours) [% remaining after 2 hours]	Ki [1, 11] [nM]	Ki [2, 12] [nM]	Ki [3, 13] [nM]	Ki [4, 14] [nM]	Stability in human plasma, % remaining ([5]; after 5 hours) [% remaining after 5 hours]	Log10 reduction in CFUs compared to meropenem alone [6] [Log10]
N=C(N)CC(=O)Nc1ccc(S(=O)(=O)Nc2scnc2C(=O)O)cc1F [Example 4, 5-[[4-[(3-amino-3-imino-propanoyl)amino]-3-fluoro-phenyl]sulfonylamino]thiazole-4-carboxylic acid]	200 to 500	20 to 50	1000 to 10000	< 50	–	–	–	–	–	–	–
COc1cc(S(=O)(=O)Nc2scnc2C(=O)O)ccc1NC(=O)CNC(=N)N [Example 16, 5-[[4-[(2-guanidinoacetyl)amino]-3-methoxy-phenyl]sulfonylamino]thiazole-4-carboxylic acid]	< 200	< 20	500 to 1000	50 to 200	89	< 150	< 20	150 to 600	30 to 100	–	–
NCC(=O)Nc1ccc(S(=O)(=O)Nc2scnc2C(=O)O)cc1OC(F)(F)F [Comp. G, reference compound]	–	–	–	–	–	300 to 500	20 to 50	150 to 600	30 to 100	–	–
O=C(CNC1=NCCN1)Nc1cc(F)c(S(=O)(=O)Nc2scnc2C(=O)O)cc1F [Example 10, 5-[[4-[[2-(4,5-dihydro-1H-imidazol-2-ylamino)acetyl]amino]-2,5-difluoro-phenyl]sulfonylamino]thiazole-4-carboxylic acid]	< 200	< 20	500 to 1000	< 50	–	–	–	–	–	–	–
N=C(N)CC(=O)Nc1c(F)cc(S(=O)(=O)Nc2scnc2C(=O)O)cc1F [Example 13, 5-[[4-[(3-amino-3-imino-propanoyl)amino]-3,5-difluoro-phenyl]sulfonylamino]thiazole-4-carboxylic acid]	< 200	50 to 150	500 to 1000	< 50	–	–	–	–	–	–	–
O=C(CCC1=NCCN1)Nc1ccc(S(=O)(=O)Nc2scnc2C(=O)O)cc1F [Example 36, 5-[[4-[3-(4,5-dihydro-1H-imidazol-2-yl)propanoylamino]-3-fluoro-phenyl]sulfonylamino]thiazole-4-carboxylic acid]	200 to 500	50 to 150	1000 to 10000	< 50	–	–	–	–	–	–	–
N=C(N)NNC(=O)Nc1c(F)cc(S(=O)(=O)Nc2scnc2C(=O)O)cc1F [Example 26, 5-[[3,5-difluoro-4-(guanidinocarbamoylamino)phenyl]sulfonylamino]thiazole-4-carboxylic acid]	200 to 500	20 to 50	1000 to 10000	< 50	–	–	–	–	–	–	1.8
NCC(=O)Nc1c(F)cc(S(=O)(=O)Nc2scnc2C(=O)O)cc1F [Comp. B, reference compound]	–	–	–	–	–	300 to 500	100 to 150	600 to 5000	< 30	0	–
NCC(=O)Nc1ncc(S(=O)(=O)Nc2scnc2C(=O)O)cc1F [Comp. C, reference compound]	–	–	–	–	–	500 to 1000	100 to 150	600 to 5000	100 to 300	–	–
CNC(=N)CC(=O)Nc1ccc(S(=O)(=O)Nc2scnc2C(=O)O)cc1F [Example 22, 5-[[3-fluoro-4-[[3-imino-3-(methylamino)propanoyl]amino]phenyl]sulfonylamino]thiazole-4-carboxylic acid]	200 to 500	50 to 150	1000 to 10000	< 50	–	–	–	–	–	–	–
O=C(CNC1=NCCN1)Nc1ccc(S(=O)(=O)Nc2scnc2C(=O)O)cc1F [Example 32]	200 to 500	20 to 50	1000 to 10000	50 to 200	–	–	–	–	–	–	–
NCC(=O)Nc1ccc(S(=O)(=O)Nc2scnc2C(=O)O)cc1 [Comp. H, reference compound]	–	–	–	–	–	500 to 1000	20 to 50	5000 to 10000	100 to 300	–	–
N#CNC(=N)NCC(=O)Nc1ccc(S(=O)(=O)Nc2scnc2C(=O)O)cc1F [Example 34, 5-[[4-[[2-[(N-cyanocarbamimidoyl)amino]acetyl]amino]-3-fluoro-phenyl]sulfonylamino]thiazole-4-carboxylic acid]	500 to 1000	20 to 50	< 500	< 50	–	–	–	–	–	–	–

Further lines, with some results ahead:

Ki [1, 7] [nM]	Ki [2, 8] [nM]	Ki [3, 9] [nM]	Ki [4, 10] [nM]	Stability in human plasma, % remaining ([5]; after 2 hours) [% remaining after 2 hours]	Ki [1, 11] [nM]	Ki [2, 12] [nM]	Ki [3, 13] [nM]	Ki [4, 14] [nM]	Stability in human plasma, % remaining ([5]; after 5 hours) [% remaining after 5 hours]	SMILES	Log10 reduction in CFUs compared to meropenem alone [6] [Log10]
< 200	20 to 50	500 to 1000	< 50	–	–	–	–	–	–	N=C(N)CCC(=O)Nc1ccc(S(=O)(=O)Nc2scnc2C(=O)O)cc1F [Example 35, 5-[[4-[(4-amino-4-imino-butanoyl)amino]-3-fluoro-phenyl]sulfonylamino]thiazole-4-carboxylic acid]	–
200 to 500	20 to 50	1000 to 10000	50 to 200	–	300 to 500	20 to 50	600 to 5000	100 to 300	–	N=C(N)NCC(=O)Nc1ncc(S(=O)(=O)Nc2scnc2C(=O)O)cc1F [Example 3, 5-[[5-fluoro-6-[(2-guanidinoacetyl)amino]-3-pyridyl]sulfonylamino]thiazole-4-carboxylic acid]	–
200 to 500	50 to 150	1000 to 10000	50 to 200	–	–	–	–	–	–	N=C(N)NCc1ccc(S(=O)(=O)Nc2scnc2C(=O)O)cc1F [Example 46, 5-[[3-fluoro-4-(guanidinomethyl)phenyl]sulfonylamino]thiazole-4-carboxylic acid]	–
200 to 500	20 to 50	1000 to 10000	< 50	–	–	–	–	–	–	N=C(N)CNC(=O)Nc1ccc(S(=O)(=O)Nc2scnc2C(=O)O)cc1F [Example 30, 5-[[4-[(2-amino-2-imino-ethyl)carbamoylamino]-3-fluoro-phenyl]sulfonylamino]thiazole-4-carboxylic acid]	–
< 200	20 to 50	1000 to 10000	200 to 2000	–	–	–	–	–	–	N=C(NCCN)NCC(=O)Nc1ccc(S(=O)(=O)Nc2scnc2C(=O)O)cc1F [Example 39, 5-[[4-[[2-[[N-(2-aminoethyl)carbamimidoyl]amino]acetyl]amino]-3-fluoro-phenyl]sulfonylamino]thiazole-4-carboxylic acid]	–
< 200	20 to 50	< 500	< 50	–	–	–	–	–	–	N=C(N)NCCSC(=O)Nc1ccc(S(=O)(=O)Nc2scnc2C(=O)O)cc1F [Example 31, 5-[[3-fluoro-4-(2-guanidinoethylsulfanyl-carbonylamino)phenyl]sulfonylamino]thiazole-4-carboxylic acid]	–
< 200	< 20	< 500	50 to 200	–	< 150	< 20	< 150	30 to 100	–	N=C(N)NCC(=O)Nc1ccc(S(=O)(=O)Nc2scnc2C(=O)O)cc1Cl [Example 17, 5-[[3-chloro-4-[(2-guanidinoacetyl)amino]phenyl]sulfonylamino]thiazole-4-carboxylic acid]	–
–	–	–	–	29	300 to 500	–	600 to 5000	100 to 300	–	COc1cc(S(=O)(=O)Nc2scnc2C(=O)O)ccc1NC(=O)CN [Comp. E, reference compound]	–
200 to 500	20 to 50	1000 to 10000	< 50	–	150 to 300	20 to 50	600 to 5000	< 30	–	N=C(N)NNC(=O)Nc1ccc(S(=O)(=O)Nc2scnc2C(=O)O)cc1F [Example 29, 5-[[3-fluoro-4-(guanidinocarbamoylamino)phenyl]sulfonylamino]thiazole-4-carboxylic acid]	–
